Data: patent US11807650B2, “NMDA receptor modulators and uses thereof” (Novartis AG, priority 2016, dated 2023)

What was measured:
[1] = target: T1, human GRIN1 (variant NR1-3) and GRIN2D expressed in HEK293 cells (Homo sapiens, UniProt O15399); assay: GluN2D PAM CIQ fluorescence assay (Fluo-8 calcium, FDSS 6000); assay type: cell-based; details: relative to CIQ (100 uM) = 100%, read-out: NR2D Percent CIQ Avg Max Measured Effect
T1 construct: GenScript (GRIN2D synthesis) SC115601; host or cells: HEK293
Description: GluN2D PAM CIO Flourescence AssayHEK293 cells were transfected to express human GRIN1 (variant NR1-3, Origene, SKU #: SC115601, Rockville, Md.) and GRIN2D (NCBI locus NM_000836, sequence optimized and synthesized by GenScript) and grown as an adherent monolayer at 37° C., 5% CO2 in DMEM/Ham's F12+10% FBS (Hyclone SH3007.03T in the presence of 2.5 mM ARL-15896 (AdooQ Bioscience, Irvine Calif.). To prepare the cells for an experiment, they were rinsed with Dulbecco's PBS (Ca^2+ and Mg^2+ free) and detached from the flask with TrypLE™ Express (Life Technologies, Carlsbad, Calif.) using the manufacturer's recommended methods. Cells collected from the flask were washed twice in Ca^2+/Mg^2+-free Hanks Balanced Salt Solution+20 mM HEPES (HBSS), and counted and assessed for viability with trypan blue. Washed cells were then dye-loaded by resuspending in Fluo-8/AM calcium sensitive dye plus Component B (AAT Bioquest, Sunnyvale, Calif.) diluted in HBSS. To allow cells to take up fluo-8 dye, they were incubated in the dark for 15 min at 37° C., followed by 30 min at 22-25° C. After dye-loading, cells were washed and resuspended in HBSS and plated in 384-well plates (Falcon 353962; Corning, Big Flats, N.Y.) at 20,000-30,000 cells/well in a final volume of 25 μl/well. The cell plates were centrifuged at 200×g, for 2 minutes at 21° C., to create a monolayer of cells at the bottom of the wells.
To initiate an assay, 10 μl of test compound or buffer was added to each well of the cell plate and pre-incubated for 10 minutes in the dark. After 10 minutes, the cell plate was placed in a FDSS 6000 plate reader (Hamamatsu Photonics, Middlesex, N.J.); baseline fluorescence readings were collected for 20 seconds. Next, 25 μl of agonist solution (3 μM glutamate, 3 μM glycine, and 1 mM Ca^2+ in HBSS) was added and the change in fluorescence was recorded for 3 minutes.
Results were calculated by comparing the effects of test compounds to that of the literature standard GluN2C/D PAM CIQ (100 uM). The increase in fluorescence in the presence of CIQ minus the increase induced by glutamate+glycine alone was set to 100%. Responses induced by compounds that were larger than gain the presence of the standard concentration of CIQ were greater than 100% and lesser responses were less than 100%.

[2] = target: T2, human GRIN1 (transcript variant NR1-3) and GRIN2D expressed in Xenopus oocytes (Homo sapiens, UniProt O15399); assay: NR2D oocyte potentiation assay (two-electrode voltage clamp); assay type: cell-based; details: 10 uM test compound; glutamate and glycine 10 μM each; holding potential −40 mV
T2 construct: GenScript (GRIN2D synthesis) SC115601; host or cells: Xenopus oocytes injected with cRNA (1 GluN1 : 2 GluN2)
Outline: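 Xenopus oocytes were defolliculated with collagenase, then injected with 50 nL of cRNA encoding human GluN1 (NR1-3 variant) and GluN2D mixed 1:2 and kept 72 h at 16° C. Two-electrode voltage clamp at −40 mV recorded currents; after 10 μM glutamate plus 10 μM glycine reached plateau, test compound was added until a new plateau formed.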

T2 sequence (O15399 28-1336, other chains not shown): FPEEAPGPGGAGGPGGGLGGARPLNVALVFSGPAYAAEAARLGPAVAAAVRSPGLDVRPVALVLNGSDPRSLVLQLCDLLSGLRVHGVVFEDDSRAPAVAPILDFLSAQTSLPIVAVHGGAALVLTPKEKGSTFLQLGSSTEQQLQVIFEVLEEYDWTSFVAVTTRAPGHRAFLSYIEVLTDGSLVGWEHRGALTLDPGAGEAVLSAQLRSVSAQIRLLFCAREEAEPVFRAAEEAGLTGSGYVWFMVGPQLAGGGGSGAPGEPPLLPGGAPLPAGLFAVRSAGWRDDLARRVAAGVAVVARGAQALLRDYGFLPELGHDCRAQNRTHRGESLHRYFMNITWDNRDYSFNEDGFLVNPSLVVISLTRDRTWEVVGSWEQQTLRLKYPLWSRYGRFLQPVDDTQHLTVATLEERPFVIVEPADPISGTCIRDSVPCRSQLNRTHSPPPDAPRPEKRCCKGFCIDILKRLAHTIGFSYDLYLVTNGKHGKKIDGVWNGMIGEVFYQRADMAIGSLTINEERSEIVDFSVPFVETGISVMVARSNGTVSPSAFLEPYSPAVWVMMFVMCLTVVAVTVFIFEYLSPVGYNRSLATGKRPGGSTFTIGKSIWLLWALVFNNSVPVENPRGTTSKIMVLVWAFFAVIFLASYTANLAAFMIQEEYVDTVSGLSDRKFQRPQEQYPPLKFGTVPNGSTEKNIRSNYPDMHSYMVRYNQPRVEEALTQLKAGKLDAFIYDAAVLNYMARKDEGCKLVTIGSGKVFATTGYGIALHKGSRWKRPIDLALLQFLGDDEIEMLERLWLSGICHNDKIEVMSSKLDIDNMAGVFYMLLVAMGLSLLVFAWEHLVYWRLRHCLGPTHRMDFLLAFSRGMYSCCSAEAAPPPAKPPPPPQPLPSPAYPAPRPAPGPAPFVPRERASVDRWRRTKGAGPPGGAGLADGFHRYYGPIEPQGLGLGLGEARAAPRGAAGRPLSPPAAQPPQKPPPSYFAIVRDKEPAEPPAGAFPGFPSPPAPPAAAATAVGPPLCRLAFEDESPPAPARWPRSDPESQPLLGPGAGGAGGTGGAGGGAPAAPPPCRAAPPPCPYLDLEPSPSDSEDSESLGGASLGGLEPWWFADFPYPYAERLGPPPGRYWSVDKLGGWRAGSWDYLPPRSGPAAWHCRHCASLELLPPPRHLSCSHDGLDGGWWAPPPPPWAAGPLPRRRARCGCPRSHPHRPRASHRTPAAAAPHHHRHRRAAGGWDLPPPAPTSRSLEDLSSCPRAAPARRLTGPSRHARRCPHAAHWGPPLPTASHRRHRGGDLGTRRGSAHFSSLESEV
T1 sequence (O15399 28-1336, other chains not shown): as above

Row | SMILES | Emax [1] [%] | activation at 10 µM [2] [%] | NR2D Oocyte % Potentiation @ 10 uM [2]
1 | CC(C)(C)c1ccc(-c2nc3n(c(=O)c2C#N)CCS3)cc1 [Example 205, 7-(4-tert-butylphenyl)-5-oxo-2H,3H,5H-[1,3]thiazolo[3,2-a]pyrimidine-6-carbonitrile] | 100 to 200 | 100 to 500 | 
2 | C/N=c1/c(C#N)c(-c2ccc(C(C)(C)C)cc2)nc2n1CCCS2 [Example 37, (Z)-8-(4-(tert-butyl)phenyl)-6-(methylimino)-3,4-dihydro-2H,6H-pyrimido[2,1-b][1,3]thiazine-7-carbonitrile] | > 200 | 500 to 1000 | 
3 | CC1CSc2nc(-c3ccc(N(C)C)nc3)c(C#N)c(=O)n2C1 (stereo not shown) [Example 67, 8-[6-(dimethylamino)pyridin-3-yl]-3-methyl-6-oxo-2H,3H,4H,6H-pyrimido[2,1-b][1,3]thiazine-7-carbonitrile] | 50 to 100 | 100 to 500 | 
4 | CC1CSc2nc(-c3ccc(C(C)(C)C)cc3)c(C#N)c(=O)n2C1 (stereo not shown) [Example 199, 8-(4-tert-butylphenyl)-3,4-dihydro-3-methyl-6-oxo-2H,6H-pyrimido[2,1-b][1,3]thiazine-7-carbonitrile] | 100 to 200 | > 1000 | 
5 | CC(C)(C)c1ccc(-c2nc3n(c(=O)c2C#N)CCCS3)cc1 [Example 184, 8-(4-tert-butylphenyl)-3,4-dihydro-6-oxo-2H,6H-pyrimido[2,1-b][1,3]thiazine-7-carbonitrile] | 100 to 200 | > 1000 | 
6 | N#Cc1c(-c2ccc(C(F)(F)F)nc2)nc2n(c1=O)CCCS2 [Example 48, 6-oxo-8-(6-(trifluoromethyl)pyridin-3-yl)-3,4-dihydro-2H,6H-pyrimido[2,1-b][1,3]thiazine-7-carbonitrile] | 10 to 50 | < 10 | 
7 | CC(C)(C)c1ncc(-c2nc3n(c(=O)c2C#N)CCCS3)cn1 [Example 176, 8-(2-tert-butylpyrimidin-5-yl)-6-oxo-2H,3H,4H,6H-pyrimido[2,1-b][1,3]thiazine-7-carbonitrile] | 100 to 200 | 500 to 1000 | 
8 | C[C@@H]1CSc2nc(-c3ccc(C(C)(C)C)nc3)c(C#N)c(=N)n2C1 [Example 65, (S)-8-(6-(tert-butyl)pyridin-3-yl)-6-imino-3-methyl-3,4-dihydro-2H,6H-pyrimido[2,1-b][1,3]thiazine-7-carbonitrile] | > 200 | > 1000 | 
9 | C[C@@H]1CSc2nc(-c3ccc(C(C)(C)C)nc3)c(C#N)c(=O)n2C1 [Example 45, (S)-8-(6-(tert-butyl)pyridin-3-yl)-3-methyl-6-oxo-3,4-dihydro-2H,6H-pyrimido[2,1-b][1,3]thiazine-7-carbonitrile] | > 200 | > 1000 | 
10 | CC(C)(C)c1cc(-c2nc3n(c(=O)c2C#N)CCCS3)ccn1 [Example 179, 8-(2-tert-butylpyridin-4-yl)-6-oxo-2H,3H,4H,6H-pyrimido[2,1-b][1,3]thiazine-7-carbonitrile] | 100 to 200 | 10 to 100 | 
11 | Cc1nc(C(C)(C)C)ccc1-c1nc2n(c(=O)c1C#N)CCCS2 [Example 182, 8-(6-tert-butyl-2-methylpyridin-3-yl)-6-oxo-2H,3H,4H,6H-pyrimido[2,1-b][1,3]thiazine-7-carbonitrile] | 100 to 200 | 10 to 100 | 
12 | CC(C)(C)c1ccc(-c2nc3n(c(=O)c2C#N)CCCS3)nc1 [Example 183, 8-(5-tert-butylpyridin-2-yl)-6-oxo-2H,3H,4H,6H-pyrimido[2,1-b][1,3]thiazine-7-carbonitrile] | 100 to 200 | 10 to 100 | 
13 | CC(C)(C)c1ccc(-c2nc3n(c(=N)c2C#N)CCCS3)cc1 [Example 36, 8-(4-(tert-butyl)phenyl)-6-imino-3,4-dihydro-2H,6H-pyrimido[2,1-b][1,3]thiazine-7-carbonitrile] | 100 to 200 | 500 to 1000 | 
14 | CC1CCSc2nc(-c3ccc(C(C)(C)C)cc3)c(C#N)c(=O)n21 (stereo not shown) [Example 201, 8-(4-tert-butylphenyl)-3,4-dihydro-4-methyl-6-oxo-2H,6H-pyrimido[2,1-b][1,3]thiazine-7-carbonitrile] | 100 to 200 | 10 to 100 | 
15 | N#Cc1c(-c2ccc(C3CC3)nc2)nc2n(c1=O)CCCS2 [Example 181, 8-(6-cyclopropylpyridin-3-yl)-6-oxo-2H,3H,4H,6H-pyrimido[2,1-b][1,3]thiazine-7-carbonitrile] | 100 to 200 | 10 to 100 | 
16 | CC(C)(C)c1ccc(-c2nc3n(c(=O)c2C#N)C(c2ccccc2)CCS3)cc1 (stereo not shown) [Example 202, 8-(4-tert-butylphenyl)-3,4-dihydro-4-phenyl-6-oxo-2H,6H-pyrimido[2,1-b][1,3]thiazine-7-carbonitrile] | 10 to 50 |  | Inhibitor
17 | CC1CSc2nc(-c3ccc(C(C)(C)C)nc3)c(C#N)c(=O)n2C1 (stereo not shown) [Example 175, 8-(6-tert-butylpyridin-3-yl)-3-methyl-6-oxo-2H,3H,4H,6H-pyrimido[2,1-b][1,3]thiazine-7-carbonitrile] | 100 to 200 | > 1000 | 
18 | CC1CCSc2nc(-c3ccc(C(C)(C)C)nc3)c(C#N)c(=O)n21 (stereo not shown) [Example 50, 8-(6-(tert-butyl)pyridin-3-yl)-4-methyl-6-oxo-3,4-dihydro-2H,6H-pyrimido[2,1-b][1,3]thiazine-7-carbonitrile] | 100 to 200 | 100 to 500 | 
19 | CC(C)c1ccc(-c2ccc(-c3nc4n(c(=O)c3C#N)CCCS4)c(F)c2)cc1 [Example 198, 8-{2-fluoro-4[4-(propan-2-yl)phenyl]phenyl}-6-oxo-2H,3H,4H,6H-pyrimido[2,1-b][1,3]thiazine-7-carbonitrile] | 10 to 50 | 10 to 100 | 
20 | N#Cc1c(-c2cnc(C3CC3)nc2)nc2n(c1=O)CCCS2 [Example 178, 8-(2-cyclopropylpyrimidin-5-yl)-6-oxo-2H,3H,4H,6H-pyrimido[2,1-b][1,3]thiazine-7-carbonitrile] | 100 to 200 | 10 to 100 | 
21 | Cc1ccc(-c2ccc(-c3nc4n(c(=O)c3C#N)CCCS4)c(F)c2)cc1 [Example 197, 8-[2-fluoro-4-(4-methylphenyl)phenyl]-6-oxo-2H,3H,4H,6H-pyrimido[2,1-b][1,3]thiazine-7-carbonitrile] | 10 to 50 | 10 to 100 | 
22 | C[C@H]1CSc2nc(-c3ccc(C(C)(C)C)nc3)c(C#N)c(=N)n2C1 [Example 64, (R)-8-(6-(tert-butyl)pyridin-3-yl)-6-imino-3-methyl-3,4-dihydro-2H,6H-pyrimido[2,1-b][1,3]thiazine-7-carbonitrile] | 100 to 200 | 100 to 500 | 
23 | COc1ccc(-c2nc3n(c(=O)c2C#N)CCS3)c(OC)c1 [Example 208, 7-(2,4-dimethoxyphenyl)-5-oxo-2H,3H,5H-[1,3]thiazolo[3,2-a]pyrimidine-6-carbonitrile] | 50 to 100 |  | Inhibitor
24 | CC1CSc2nc(-c3ccc(C(C)(C)C)nc3)c(C#N)c(=N)n2C1 (stereo not shown) [Example 63, 8-(6-(tert-butyl)pyridin-3-yl)-6-imino-3-methyl-3,4-dihydro-2H,6H-pyrimido[2,1-b][1,3]thiazine-7-carbonitrile] | > 200 | > 1000 | 
25 | CC(C)(C)c1ccc(-c2nc3n(/c(=N\C(=O)C(F)(F)F)c2C#N)CCCS3)cc1 [Example 43, (Z)—N-(8-(4-(tert-butyl)phenyl)-7-cyano-3,4-dihydro-2H,6H-pyrimido[2,1-b][1,3]thiazin-6-ylidene)-2,2,2-trifluoroacetamide] | 10 to 50 | 100 to 500 | 
26 | CC(C)(C)c1ccc(-c2nc3n(c(=O)c2C#N)CC(O)CS3)cc1 (stereo not shown) [Example 200, 8-(4-tert-butylphenyl)-3,4-dihydro-3-hydroxy-6-oxo-2H,6H-pyrimido[2,1-b][1,3]thiazine-7-carbonitrile] | 50 to 100 | < 10 | 
